Laboratory results published in patent US5843339A, “Phosphites and their production and use” (Sumitomo Chemical Company, Limited, priority 1995, dated 1998).

Key:
[1] = Hydrolysis resistance: same gel build-up test with test compound stored in a thermo-hygrostat; assay type: physicochemical; conditions: test compound allowed to stand in thermo-hygrostat (40° C., 80%) for 7 days, then same test as processing stability
Experimental: Using a test compound which was allowed to stand in a thermo-hygrostat (40° C., 80%) for 7 days, the same test was conducted and the hydrolytic stability of the compound was evaluated. The results are shown in Table 1 as "hydrolysis resistance".
The processing stability of the hydrolyzed compound is deteriorated. Therefore, the better the processing stability after treatment, the better the hydrolysis resistance becomes.

[2] = Dispersion properties: visual transparency of press-molded sheet; assay type: physicochemical; set-up: key: .circleincircle.: Good; .largecircle.: Slightly good; Δ: Slightly opaque; X: Opaque; conditions: pellets press-molded at 250° C., sheet of 1 mm thickness
Experimental: The resultant pellets were press-molded at 250° C. to obtain a sheet having a thickness of 1 mm, and transparency of this sheet was visually evaluated. The results are shown in Table 1 as "dispersion properties".
The better the transparency, the better the dispersion properties in the polymer become.
In Table 1, dispersion properties are indicated according to the following criteria.

[3] = Heat stability test of linear low-density polyethylene: processing stability (gel build-up time on kneading); conditions: 0.1 parts test compound per 100 parts LLDPE + 0.1 parts hydrotalcite; pellets extruded at 250° C., kneaded under nitrogen at 240° C., 100 rpm, laboplasto mill; time to maximum torque
Experimental: Heat stability test of linear low-density polyethylene
Using a 30 mm .phi. mono axial extruder, the above formulation was extruded into pellets at 250° C. The resultant pellets were kneaded under a nitrogen atmosphere at 240° C., 100 rpm, using a laboplasto mill, and the time required for a torque value due to crosslinking to reach a maximum value (gel build-up time, minute) was measured. The results are shown in Table 1 as "processing stability".
The longer the gel build-up time, the more crosslinking on kneading is inhibited and the better the processing stability becomes.

Row | SMILES | Hydrolysis resistance (gel build-up time after treatment of the test compound) [1] [min] | Dispersion properties (transparency of sheet, visually evaluated) [2] | Processing stability (gel build-up time) [3] [min]
1 | CC(C)(C)c1ccc(OP2OCC3(CO2)COP(Oc2ccc(C(C)(C)C)cc2C(C)(C)C)OC3)c(C(C)(C)C)c1 (stereo not drawn) [Compound P-1, bis(2,4-di-t-butylphenyl)pentaerythritol diphosphite] | 7 | X | 7
2 | Cc1cc(CCC(=O)OCCOp2oc3c(C(C)(C)C)cc(C(C)(C)C)cc3c3cc(C(C)(C)C)cc(C(C)(C)C)c3o2)cc(C(C)(C)C)c1O [KA-1, 3-(3-t-butyl-4-hydroxy-5-methylphenyl)propionic acid 2-[(2,4,8,10-tetra-t-butyldibenzo[d,f][1,3,2]dioxaphosphepin-6-yl)oxy]ethyl] | 21 | .circleincircle. | 21
3 | CC(C)(C)c1ccc(OP(Oc2ccc(C(C)(C)C)cc2C(C)(C)C)Oc2ccc(C(C)(C)C)cc2C(C)(C)C)c(C(C)(C)C)c1 [Compound P-2, tris(2,4-di-t-butylphenyl)phosphite] | 4 | X | 7
4 | Cc1cc(Cc2cc(C)cc(C(C)(C)C)c2OP2Oc3c(cc(C)cc3C(C)(C)C)Cc3cc(C)cc(C(C)(C)C)c3O2)c(O)c(C(C)(C)C)c1 [Compound P-4, 2-[2-(4,8-di-t-butyl-2,10-dimethyl-12H-dibenzo[d,g][1,3,2]dioxaphosphosin-6-yl)oxy-3-t-butyl-5-methylbenzyl]-6-t-butyl-4-methylphenol] | 15 | .largecircle. | 15
5 | Cc1cc2c(c(C(C)(C)C)c1)OP(OCCOC(=O)CCc1cc(C)c(O)c(C(C)(C)C)c1)Oc1c(cc(C)cc1C(C)(C)C)C2 [Compound P-3, 2-[3-(3-t-butyl-4-hydroxy-5-methyphenyl)propionyloxy]ethyl 2,2'-methylenebis(6-t-butyl-4-methylphenyl)phosphite] | 16 | .largecircle. | 16
